These are literature values, as cited in patent US11344529B2, “Compositions and methods for the treatment of metabolic conditions” (Reven IP HoldCo LLC, priority 2017, dated 2022).

The conditions of series [1]: more than 500 postmenopausal women.

As for `CC(C)=CCC/C(C)=C/CC/C(C)=C/CC/C(C)=C/CC1=C(C)C(=O)c2ccccc2C1=O` [Vitamin K2], in series [1], the “association of intake with coronary calcification” value was “associated with the trend toward decreasing coronary calcification”. Besides, the “total cholesterol, lipid peroxidation, aortic ester cholesterol deposition, plasma factor X activity” value (compared to the control group) was “reduce total cholesterol levels, lipid peroxidation, ester cholesterol deposition in the aorta and factor X activity in plasma”. Further, for the setting “rabbits, 1-10 mg/kg daily for 10 weeks”, the “atherosclerotic plaque progression in the aorta and pulmonary arteries” value is on record as “inhibited the atherosclerotic plaque progression”.
